Toxic doses and inconclusive results are not listed. Cut-off read from the data, not from the text of the source: active = T/C of 150% or more; inactive = T/C below 125%.
System: L1210 leukemia ip in BDF1 mice, survival T/C
Assay: NCI In Vivo Anticancer Drug Screen. Data for tumor model L1210 Leukemia (intraperitoneal) in B6D2F1 (BDF1) mice
Settings: endpoint: mean survival time, higher = longer survival
Outline: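 Transplanted-tumor mice were given test agent; controls received vehicle only. Survival readings from the two groups were divided (treated over control).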

[1] = dose: 100.0 mg/kg/injection, schedule: Q04DX003 (ip), vehicle: Klucel (hydroxypropylcellulose) (HPC)
[2] = dose: 100.0 mg/kg/injection, schedule: Q01DX001 (ip), vehicle: saline
[3] = dose: 200.0 mg/kg/injection, schedule: Q01DX001 (ip), vehicle: saline
[4] = dose: 400.0 mg/kg/injection, schedule: Q01DX001 (ip), vehicle: saline
[5] = dose: 100.0 mg/kg/injection, schedule: Q01DX009 (ip), vehicle: Klucel (hydroxypropylcellulose) (HPC)
[6] = dose: 200.0 mg/kg/injection, schedule: Q01DX009 (ip), vehicle: Klucel (hydroxypropylcellulose) (HPC)
[7] = dose: 200.0 mg/kg/injection, schedule: Q04DX003 (ip), vehicle: Klucel (hydroxypropylcellulose) (HPC)
[8] = dose: 400.0 mg/kg/injection, schedule: Q01DX009 (ip), vehicle: Klucel (hydroxypropylcellulose) (HPC)
[9] = dose: 400.0 mg/kg/injection, schedule: Q04DX003 (ip), vehicle: Klucel (hydroxypropylcellulose) (HPC)
[10] = dose: 100.0 mg/kg/injection, schedule: Q04DX003 (ip), vehicle: saline with Tween-80
[11] = dose: 200.0 mg/kg/injection, schedule: Q04DX003 (ip), vehicle: saline with Tween-80
[12] = dose: 400.0 mg/kg/injection, schedule: Q04DX003 (ip), vehicle: saline with Tween-80
[13] = dose: 5.0 mg/kg/injection, schedule: Q01DX001 (ip), vehicle: saline
[14] = dose: 10.0 mg/kg/injection, schedule: Q01DX001 (ip), vehicle: saline
[15] = dose: 20.0 mg/kg/injection, schedule: Q01DX001 (ip), vehicle: saline
[16] = dose: 40.0 mg/kg/injection, schedule: Q01DX001 (ip), vehicle: saline
[17] = dose: 80.0 mg/kg/injection, schedule: Q01DX001 (ip), vehicle: saline

Measured: T/C

CC1(CCCc2ccc([N+](=O)[O-])cc2)N=C(N)N=C(N)N1c1ccccc1 (centres undefined)
inactive: dose: 25.0 mg/kg/injection, schedule: Q04DX003 (ip), vehicle: Klucel (hydroxypropylcellulose) (HPC) 103 % of control | dose: 50.0 mg/kg/injection, schedule: Q04DX003 (ip), vehicle: Klucel (hydroxypropylcellulose) (HPC) 100 % of control | [1] 121 % of control

CCOC(=O)C(C(=O)OCC)C(=O)OCC
inactive: [2] 102 % of control | [3] 102 % of control | [4] 105 % of control

O=C(O)/C=C/C(=O)Nc1ccc2c(c1)C(NC(=O)/C=C/C(=O)O)c1ccccc1-2 (centres undefined)
inactive: [2] 93 % of control | dose: 100.0 mg/kg/injection, schedule: Q04DX003 (ip), vehicle: saline 100 % of control | [3] 97 % of control | dose: 200.0 mg/kg/injection, schedule: Q04DX003 (ip), vehicle: saline 96 % of control | [4] 88 % of control | dose: 400.0 mg/kg/injection, schedule: Q04DX003 (ip), vehicle: saline 92 % of control

CCCN(CCC)C(=O)CCl
inactive: [2] 109 % of control | [3] 95 % of control

O=C(Nc1ccc(Nc2ccccc2)cc1)Nc1ccccc1Cl
inactive: [5] 90 % of control | [1] 95 % of control | [6] 90 % of control | [7] 92 % of control | [8] 92 % of control | [9] 90 % of control

NC(=S)c1cccnc1
inactive: dose: 50.0 mg/kg/injection, schedule: Q01DX003 (ip), vehicle: Klucel (hydroxypropylcellulose) (HPC) 94 % of control | dose: 100.0 mg/kg/injection, schedule: Q01DX003 (ip), vehicle: Klucel (hydroxypropylcellulose) (HPC) 94 % of control | [1] 109 % of control | dose: 200.0 mg/kg/injection, schedule: Q01DX003 (ip), vehicle: Klucel (hydroxypropylcellulose) (HPC) 97 % of control | [7] 111 % of control | [9] 109 % of control

CCN(C)CCC(C=NCC(CCN(C)CC)(CCN(C)CC)c1cccc2ccccc12)(CCN(C)CC)c1cccc2ccccc12
inactive: dose: 6.25 mg/kg/injection, schedule: Q01DX009 (ip), vehicle: saline 103 % of control | dose: 12.5 mg/kg/injection, schedule: Q01DX009 (ip), vehicle: saline 96 % of control | dose: 12.5 mg/kg/injection, schedule: Q04DX003 (ip), vehicle: saline 101 % of control | dose: 25.0 mg/kg/injection, schedule: Q01DX009 (ip), vehicle: saline 111 % of control | dose: 25.0 mg/kg/injection, schedule: Q04DX003 (ip), vehicle: saline 106 % of control

O=C1CC(=C2C(=O)c3ccccc3C2=O)c2ccccc21
inactive: [10] 95 % of control | [11] 97 % of control | [12] 106 % of control

CCOC(=O)C1C(=O)C(CN(CCCl)CCCl)C(=O)C(C(=O)OCC)C1c1ccc(O)cc1 (centres undefined)
inactive: [5] 113 % of control | [1] 106 % of control | [6] 112 % of control | [7] 110 % of control | [8] 110 % of control | [9] 114 % of control

C=COC(=O)CCCCCCCCCCCCCCCCC
inactive: [1] 101 % of control | [7] 100 % of control | [9] 103 % of control

O=Cc1c(Cl)n(-c2ccccc2)c2ccccc12
inactive: dose: 50.0 mg/kg/injection, schedule: Q04DX002 (ip), vehicle: Klucel (hydroxypropylcellulose) (HPC) 97 % of control | dose: 100.0 mg/kg/injection, schedule: Q04DX002 (ip), vehicle: Klucel (hydroxypropylcellulose) (HPC) 97 % of control | dose: 200.0 mg/kg/injection, schedule: Q04DX002 (ip), vehicle: Klucel (hydroxypropylcellulose) (HPC) 87 % of control

CC1(C)OC(=O)CC1c1ccccc1 (centres undefined)
inactive: [13] 108 % of control | [14] 101 % of control | [15] 86 % of control | [16] 97 % of control | [17] 101 % of control | [2] 102 % of control | [4] 95 % of control

CNS(=O)(=O)CCC(N)C(=O)O (centres undefined)
inactive: [10] 97 % of control | [11] 103 % of control | [12] 97 % of control

CC(=O)C(Cl)C(C)=O.CC(=O)C(Cl)C(C)=O.CC(=O)CC(C)=O.[Rh]
inactive: dose: 50.0 mg/kg/injection, schedule: Q01DX001 (ip), vehicle: other 102 % of control | dose: 100.0 mg/kg/injection, schedule: Q01DX001 (ip), vehicle: other 98 % of control | dose: 200.0 mg/kg/injection, schedule: Q01DX001 (ip), vehicle: other 96 % of control | dose: 400.0 mg/kg/injection, schedule: Q01DX001 (ip), vehicle: other 98 % of control

Cc1cccc(N2CCN(C(=S)c3ccccc3)CC2)c1
inactive: [2] 93 % of control | [3] 93 % of control | [4] 98 % of control

O=C1NC(=O)C(F)C(O)N1 (centres undefined)
inactive: [13] 102 % of control | [14] 101 % of control | [15] 96 % of control | [16] 101 % of control | [17] 108 % of control

Nc1ccc(Nc2ccc([N+](=O)[O-])cc2[N+](=O)[O-])cc1
inactive: dose: 50.0 mg/kg/injection, schedule: Q01DX009 (ip), vehicle: gum acacia 99 % of control | dose: 50.0 mg/kg/injection, schedule: Q04DX003 (ip), vehicle: gum acacia 100 % of control | dose: 100.0 mg/kg/injection, schedule: Q01DX009 (ip), vehicle: gum acacia 94 % of control | dose: 100.0 mg/kg/injection, schedule: Q04DX003 (ip), vehicle: gum acacia 101 % of control | dose: 200.0 mg/kg/injection, schedule: Q01DX009 (ip), vehicle: gum acacia 94 % of control | dose: 200.0 mg/kg/injection, schedule: Q04DX003 (ip), vehicle: gum acacia 98 % of control
